Assay [1] concerns HeLa cells. The assay can be described thus: Bipolar spindle establishment after STLC washout. The assay is classed as cell-based, human. The settings on record: 30 μM, 2 h after STLC washout. As for the experimental part: To analyse bipolar spindle establishment from monopolar spindles, HeLa cells were arrested at prometaphase with 10 μM of STLC for 15 h. STLC was removed by washing cells with the medium three times. After treatment with 1% DMSO or 30 μM of gatastatin for 2 h, cells were immediately fixed with cold MeOH (−20 °C).
Immunostaining was performed as described above using anti-α-tubulin (1:250 dilution, Santa Cruz, Cat# sc-32293) and anti-pericentrin (1:250 dilution, Abcam, Cat# ab4448) antibodies. Spindle structure was observed under a Leica LAS AF 6000 fluorescence microscope (Leica Microsystems). The measurement of spindle length was performed as described above.

In assay [2] the test system is HeLa cells. The assay can be described thus: Analysis of interphase MT network. The format is cell-based, human. The settings on record: 100 μM, 2.5 h. As for the experimental part:
HeLa cells were cultured in DMEM containing 10% FBS in a humidified atmosphere containing 5% CO2. After treatment with each compound for 2.5 h (interphase MT network) or 5 h (mitotic spindle), the cells were immediately fixed with cold MeOH (−20 °C). After blocking with PBS containing 0.5% bovine serum albumin, cells were incubated with anti-α-tubulin antibodies (1:500 dilution, Santa Cruz, Cat# sc-32293) to observe interphase cells, or with anti-BubR1 (1:250 dilution, BD Bioscience, Cat# 612502) and anti-α-tubulin (1:250 dilution, MBL, Cat# PM054) antibodies to observe mitotic spindle. After staining with Alexa^488-conjugated anti-mouse IgG (1:2,000 dilution, Invitrogen, Cat#A11001) and Alexa568-conjugated anti-rabbit IgG (1:2000 dilution, Invitrogen, Cat#A11011), cells were washed four times with PBS and mounted with PBS containing 0.1 μg ml^−1 DAPI. MTs and BubR1 signals were observed under a Leica LAS AF 6000 fluorescence microscope (Leica Microsystems) or an LSM 700 laser-scanning confocal microscope (Zeiss).

The target in the next assay is T1, α/β-tubulin (Sus scrofa, UniProt P02550+P02554).
T1 construct: α/β-Tubulin was purified from porcine brain; from tissue; host or cells: porcine brain
T1 sequence (P02554 whole entry): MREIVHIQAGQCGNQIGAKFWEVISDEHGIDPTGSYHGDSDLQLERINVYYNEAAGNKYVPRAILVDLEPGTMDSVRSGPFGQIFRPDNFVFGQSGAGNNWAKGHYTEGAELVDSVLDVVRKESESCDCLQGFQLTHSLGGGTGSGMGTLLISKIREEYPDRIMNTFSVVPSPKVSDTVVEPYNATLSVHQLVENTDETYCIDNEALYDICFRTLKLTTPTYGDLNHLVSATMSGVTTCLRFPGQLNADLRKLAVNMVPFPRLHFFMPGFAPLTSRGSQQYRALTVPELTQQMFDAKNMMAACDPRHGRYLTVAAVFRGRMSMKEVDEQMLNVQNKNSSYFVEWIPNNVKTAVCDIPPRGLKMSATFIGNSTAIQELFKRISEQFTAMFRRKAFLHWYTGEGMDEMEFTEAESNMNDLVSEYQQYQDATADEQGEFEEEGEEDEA
T1 sequence (P02550 whole entry): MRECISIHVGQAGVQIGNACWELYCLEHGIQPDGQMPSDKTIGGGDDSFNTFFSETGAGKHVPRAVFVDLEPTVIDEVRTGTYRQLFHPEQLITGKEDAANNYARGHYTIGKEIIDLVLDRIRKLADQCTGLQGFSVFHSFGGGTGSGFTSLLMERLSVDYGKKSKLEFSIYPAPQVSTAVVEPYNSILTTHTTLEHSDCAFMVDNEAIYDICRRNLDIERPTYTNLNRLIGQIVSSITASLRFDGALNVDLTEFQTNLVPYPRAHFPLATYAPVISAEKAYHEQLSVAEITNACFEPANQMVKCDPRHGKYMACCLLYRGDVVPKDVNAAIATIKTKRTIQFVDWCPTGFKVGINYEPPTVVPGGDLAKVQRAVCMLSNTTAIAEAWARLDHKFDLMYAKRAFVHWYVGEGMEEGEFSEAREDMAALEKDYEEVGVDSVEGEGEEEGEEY
The assay is described as follows: Tryptophan-based drug-binding assay, α/β-tubulin. Details: species or system porcine. The settings on record: tryptophan fluorescence decrease; 1 μM protein; mean±s.d., three independent experiments. As for the experimental part: γ-TuSC was purified as described. Briefly, γ-TuSC was expressed in HighFive cells and purified by sequential steps of Ni-NTA (Macherei-Nagel) purification, MonoQ column purification (GE Healthcare) and size exclusion (Superdex 200 column, GE Healthcare)[14]. α/β-Tubulin was purified from porcine brain through four cycles of polymerization and depolymerization using 1 M PIPES buffer (1 M PIPES-KOH, 1 mM EGTA, 1 mM MgCl2, pH 6.8) for effective removal of MT-associated proteins.
Gel filtration buffer for γ-tubulin purification (50 mM MES pH 6.6, 500 mM KCl, 5 mM MgCl2, 1 mM EGTA and 1 mM DTT) supplemented with 10% of glycerol was used as an assay buffer. γ-tubulin and α/β-tubulin were diluted in this assay buffer to reach a final protein concentration of 1 μM. A final concentration of 10 μM or 1 mM GTP was added to the samples. Proteins were incubated for 30 min with compounds (final DMSO concentration was 1%; 2% for AG1 and gatastatin). […] Dissociation constants were calculated from fitting curves of decreasing fluorescence (ΔFL) using the GraphPad Prizm software.

The values that follow come from publication PMC4640066 (Nature Communications, 2015).

As to `COc1cc2c(=O)c(-c3cc(OC)c4c(c3OC)OCO4)coc2cc1OCc1ccccc1` [Gatastatin, O^7-demethylbenzyl AG1], the “Cells unable to assemble a metaphase-like spindle on STLC washout” value with HeLa cells [1] amounted to 87%. The “Effect on interphase MT network” value with HeLa cells [2] is “did not obviously change the appearance of the interphase MT network”. The Kd on α/β-tubulin was determined as 42.5 ± 36.7 µM.

A word on the Kd: it is the equilibrium constant for the complex coming apart.
